Structures can show the parent of a compound that is named as a salt.
Key:
[1] = target: human sphingosine-1-phosphate 1 receptor (S1P1 receptor) (Homo sapiens, UniProt P21453); experiment: Ca2+ inducing ability using CHO cells overexpressing human S1P1 receptor (Calcium 5 assay kit); assay type: cell-based; settings: CHO cells overexpressing human S1P1, calcium RFU; S1P 1 μM = 100%
Source text: Evaluation of Ca^2+ inducing ability of test compound using a cell line expressing human sphingosine-1-phosphate
CHO (Chinese hamster ovary) cells which overexpress human sphingosine-1-phosphate 1 receptor (S1P1 receptor) that react with sphingosine-1-phosphate (S1P) are used for a functional test method wherein an increase of calcium indicates a therapeutic efficacy of an agonist compound.
To prepare CHO cells which overexpress human S1P1˜S1P5, human clones for each subtype having HA at the N terminal residue (S1P1: EDG010TN00, S1P2: EDG020TN00, S1P3: EDG030TN00, S1P4: EDG060TN00, S1P5: EDG080TN00) were purchased from the Missouri S&T cDNA Resource Center and co-transfected with G-protein alpha subunit (G-alpha-16) into CHO-K1 cells.
A calcium measurement kit (Calcium 5 assay kit, Molecular Devices) was used to select an agonist compound. The principle of calcium measurement is that calcium-sensitive dyes are applied to cells, they enter into the cytoplasm of the cells during incubation, and when a ligand binds to a certain receptor to release calcium into the cytoplasm, the dyes bind to said calcium to induce fluorescence which is measured. This test method can sensitively measure only the intracellular calcium concentration change because any change that may occur outside the cells is masked by a masking dye.
The experimental procedure was as follows. One day before calcium measurement, CHO cells overexpressing hS1P1˜hS1P5 were dispensed into a 96-well plate (bottom clear black well) in 3×10^4 cells per well and cultured at 37° C. under 5% carbon dioxide condition for one day. 100 μl of calcium dyes mixed with Assay Buffer (1×HBSS, 20 mM HEPES, 2.5 mM probenecid, pH 7.4) were dispensed into culture solution in well and cultured at 37° C. for one hour. Test compounds were dissolved in 100% DMSO to prepare 1 μl solution per each concentration, and each solution was mixed with 199 μl Assay Buffer such that the concentrations were 50, 5, 0.5, 0.05, 0.005 and 0.0005 μM. The plate cultured with the calcium dyes was put into FlaxstationII (Molecular Devices), and the prepared test compounds (the final concentrations of the test compounds: 10, 1, 0.1, 0.01, 0.001 and 0.0001 μM) were programmed to be automatically inoculated in 50 μl per each well. For a total of 90 seconds, RFU (relative fluorescence unit) values were measured. The value of Reference (S1P substance 1 μM) deducting the blank value was set as 100%, and EC50 values of the test compounds were calculated by prism.

lymphocytes in blood = experiment: Rat peripheral blood lymphocyte decrease; assay type: in vivo; settings: male SD rat, 6 hours after administration
Method: Evaluation of Rat Peripheral Blood Lymphocyte Decrease
Lymphocyte decrease in blood by S1P1 agonist was evaluated using a male SD rat. After adapting a rat weighing about 250 g to a breeding facility for one week, a test compound was administered to it once. At 3 hours, 6 hours, 24 hours and 48 hours after administration, blood was taken from a tail caudal vein, and about 200 μl of the blood was put into an EDTA tube while preventing it from clotting, followed by measurement of the number of lymphocytes in blood. The number of lymphocytes was analyzed by a hematological examination device, Hemoanalyzer. The doses of the test compounds were 3 mg/kg for Example 52, 94, 108, 117, 142, 145, 146, 148 and 149 compounds, and 1 mg/kg for Example 150, 151, 153, 154, 155, 158, 159 and 161 compounds.

Sequence of human sphingosine-1-phosphate 1 receptor (S1P1 receptor) (P21453 whole entry): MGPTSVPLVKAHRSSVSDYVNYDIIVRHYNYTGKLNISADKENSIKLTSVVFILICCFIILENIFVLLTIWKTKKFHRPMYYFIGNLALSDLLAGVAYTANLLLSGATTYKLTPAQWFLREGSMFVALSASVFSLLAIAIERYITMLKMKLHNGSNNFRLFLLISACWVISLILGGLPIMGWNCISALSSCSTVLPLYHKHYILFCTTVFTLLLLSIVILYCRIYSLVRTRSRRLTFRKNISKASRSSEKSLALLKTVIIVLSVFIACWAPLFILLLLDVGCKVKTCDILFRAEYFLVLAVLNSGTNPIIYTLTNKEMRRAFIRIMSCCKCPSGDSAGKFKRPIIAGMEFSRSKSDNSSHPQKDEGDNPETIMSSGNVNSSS

Row | SMILES | EC50 [1] | Lymphocyte count (degree of decrease in lymphocyte number) (lymphocytes in blood; administered once, 3 mg/kg) | Lymphocyte count (degree of decrease in lymphocyte number) (lymphocytes in blood; administered once, 1 mg/kg) | Lymphocyte count (degree of decrease in lymphocyte number) (lymphocytes in blood; dose of the reference not stated)
1 | Cc1cc(CCC(=O)O)ccc1-c1noc(-c2ccc3c(ccn3C(C)C)c2)n1 [Example 1, 3-{4-[5-(1-isopropyl-1H-indol-5-yl)-[1,2,4]oxadiazol-3-yl]-3-methyl-phenyl}-propanoic acid] | 5 nM |  |  | 
2 | CC(C)n1ccc2cc(-c3nc(-c4ccc(CN5CC(C(=O)O)C5)cc4)no3)ccc21 [Example 2, 1-{4-[5-(1-isopropyl-1H-indol-5-yl)-[1,2,4]oxadiazol-3-yl]-benzyl}-azetidine-3-carboxylic acid] | 25 nM |  |  | 
3 | Cc1cc(CN2CC(C(=O)O)C2)ccc1-c1noc(-c2ccc3c(c2)c(Cl)cn3C(C)C)n1 [Example 3, 1-{4-[5-(3-chloro-1-isopropyl-1H-indol-5-yl)-[1,2,4]oxadiazol-3-yl]-3-methyl-benzyl}-azetidine-3-carboxylic acid] | 23 nM |  |  | 
4 | Cc1cc(CN2CC(C(=O)O)C2)ccc1-c1noc(-c2ccc3c(c2)c(C#N)cn3C(C)C)n1 [Example 4, 1-{4-[5-(3-cyano-1-isopropyl-1H-indol-5-yl)-[1,2,4]oxadiazol-3-yl]-3-methyl-benzyl}-azetidine-3-carboxylic acid] | 23 nM |  |  | 
5 | Cc1cc(CN2CC(C(=O)O)C2)ccc1-c1noc(-c2ccc3c(ccn3C(C)C)c2)n1 [Example 5, 1-{4-[5-(1-isopropyl-1H-indol-5-yl)-[1,2,4]oxadiazol-3-yl]-3-methyl-benzyl}-azetidine-3-carboxylic acid] | 14 nM |  |  | 
6 | Cc1c(CN2CC(C(=O)O)C2)cccc1-c1noc(-c2ccc3c(ccn3C(C)C)c2)n1 [Example 26, 1-{3-[5-(1-isopropyl-1H-indol-5-yl)-[1,2,4]oxadiazol-3-yl]-2-methyl-benzyl}-azetidine-3-carboxylic acid] | 2 nM |  |  | 
7 | CC(C)n1ccc2cc(-c3nc(-c4cccc5c4CCCC5NS(N)(=O)=O)no3)ccc21 (stereo not drawn) [Example 38, N-{5-[5-(1-isopropyl-1H-indol-5-yl)-[1,2,4]oxadiazol-3-yl]-1,2,3,4-tetrahydro-naphthalen-1-yl}-sulfamide] | 50 nM |  |  | 
8 | Cc1cc(CCC(=O)O)ccc1-c1noc(-c2ccc3c(c2)c(Cl)cn3C(C)C)n1 [Example 52, 3-{4-[5-(3-chloro-1-isopropyl-1H-indol-5-yl)-[1,2,4]oxadiazol-3-yl]-3-methyl-phenyl}-propanoic acid] | 10 nM | −80% |  | 
9 | Cc1c(-c2noc(-c3ccc4c(c3)c(Cl)cn4C(C)C)n2)ccc2c1CCN(CC(=O)O)C2 [Example 58, {6-[5-(3-chloro-1-isopropyl-1H-indol-5-yl)-[1,2,4]oxadiazol-3-yl]-5-methyl-3,4-dihydro-1H-isoquinolin-2-yl}-acetic acid, hydrochloride] | 20 nM |  |  | 
10 | Cc1c(-c2noc(-c3ccc4c(cnn4C(C)C)c3)n2)ccc2c1CCN(CC(=O)O)C2 [Example 85, {6-[5-(1-isopropyl-1H-indazol-5-yl)-[1,2,4]oxadiazol-3-yl]-5-methyl-3,4-dihydro-1H-isoquinolin-2-yl}-acetic acid, trifluoroacetate] | 10 nM |  |  | 
11 | Cc1c(-c2noc(-c3ccc4c(c3)c(Cl)nn4C(C)C)n2)ccc2c1CCN(CCC(=O)O)C2 [Example 94, 3-{6-[5-(3-chloro-1-isopropyl-1H-indazol-5-yl)-[1,2,4]oxadiazol-3-yl]-5-methyl-3,4-dihydro-1H-isoquinolin-2-yl}-propanoic acid, trifluoroacetate] | 6 nM | −82% |  | 
12 | Cc1c(-c2noc(-c3ccc4nn(C(C)C)cc4c3)n2)ccc2c1CCN(CC(=O)O)C2 [Example 97, {6-[5-(2-isopropyl-2H-indazol-5-yl)-[1,2,4]oxadiazol-3-yl]-5-methyl-3,4-dihydro-1H-isoquinolin-2-yl}-acetic acid, trifluoroacetate] | 50 nM |  |  | 
13 | CC(C)n1nc(Cl)c2cc(-c3nc(-c4cccc5c4CCN(S(N)(=O)=O)C5)no3)ccc21 [Example 108, 5-[5-(3-chloro-1-isopropyl-1H-indazol-5-yl)-[1,2,4]oxadiazol-3-yl]-3,4-dihydro-1H-isoquinoline-2-sulfonic acid amide] | 20 nM | −70% |  | 
14 | Cc1c(-c2noc(-c3ccc4c(c3)c(C)nn4C(C)C)n2)ccc2c1CCN(CC(=O)O)C2 [Example 117, {6-[5-(1-isopropyl-3-methyl-1H-indazol-5-yl)-[1,2,4]oxadiazol-3-yl]-5-methyl-3,4-dihydro-1H-isoquinolin-2-yl}-acetic acid, trifluoroacetate] | 3 nM | −80% |  | 
15 | Cc1cc(C(C)CC(=O)O)ccc1-c1noc(-c2ccc3c(c2)c(Cl)nn3C(C)C)n1 (stereo not drawn) [Example 129, 3-{4-[5-(3-chloro-1-isopropyl-1H-indazol-5-yl)-[1,2,4]oxadiazol-3-yl]-3-methyl-phenyl}-butyric acid, trifluoroacetate] | 50 nM |  |  | 
16 | CC(C)n1nc(Cl)c2cc(COc3ccc4cc(CN5CC(C(=O)O)C5)ccc4c3)ccc21 [Example 142, 1-[6-(3-chloro-1-isopropyl-1H-indazol-5-ylmethoxy)-naphthalen-2-ylmethyl]-azetidine-3-carboxylic acid] | 7 nM | −80% |  | 
17 | CC1=C(CN(C)CC(=O)O)CCc2cc(OCc3ccc4c(c3)c(Cl)nn4C(C)C)ccc21 [Example 145, {[6-(3-chloro-1-isopropyl-1H-indazol-5-ylmethoxy)-1-methyl-3,4-dihydro-naphthalen-2-ylmethyl]-methyl-amino}-acetic acid] | 9 nM | −48% |  | 
18 | CC1=C(CN2CC(C(=O)O)C2)CCc2cc(OCc3ccc4c(c3)c(Cl)nn4C(C)C)ccc21 [Example 146, 1-[6-(3-chloro-1-isopropyl-1H-indazol-5-ylmethoxy)-1-methyl-3,4-dihydro-naphthalen-2-ylmethyl]-azetidine-3-carboxylic acid] | 5 nM | −78% |  | 
19 | CC1=C(CN2CCC(C(=O)O)CC2)CCc2cc(OCc3ccc4c(c3)c(Cl)nn4C(C)C)ccc21 [Example 148, 1-[6-(3-chloro-1-isopropyl-1H-indazol-5-ylmethoxy)-1-methyl-3,4-dihydro-naphthalen-2-ylmethyl]-piperidine-4-carboxylic acid] | 19 nM | −81% |  | 
20 | CC1=C(CN2CCCC(C(=O)O)CC2)CCc2cc(OCc3ccc4c(c3)c(Cl)nn4C(C)C)ccc21 (stereo not drawn) [Example 149, 1-[6-(3-chloro-1-isopropyl-1H-indazol-5-ylmethoxy)-1-methyl-3,4-dihydro-naphthalen-2-ylmethyl]-azepane-4-carboxylic acid] | 19 nM | −80% |  | 
21 | CC(C)n1nc(Cl)c2cc(COc3ccc4c(c3)CCC(CN3CCC(C(=O)O)C3)=C4Cl)ccc21 (stereo not drawn) [Example 150, 1-[1-chloro-6-(3-chloro-1-isopropyl-1H-indazol-5-ylmethoxy)-3,4-dihydro-naphthalen-2-ylmethyl]-pyrrolidine-3-carboxylic acid] | 8 nM |  | −82% | 
22 | CCC(C)n1nc(Cl)c2cc(COc3ccc4c(c3)CCC(CN3CCC(C(=O)O)CC3)=C4Cl)cnc21 (stereo not drawn) [Example 160, 1-[6-(1-sec-butyl-3-chloro-1H-pyrazolo[3,4-b]pyridin-5-ylmethoxy)-1-chloro-3,4-dihydro-naphthalen-2-ylmethyl]-piperidine-4-carboxylic acid] | 19 nM |  |  | 
23 | CCCCCCCCc1ccc(CCC(N)(CO)CO)cc1 [FTY-720, Fingolimod, reference compound] |  |  |  | −80%

From patent US9540362B2, “Sphingosine-1-phosphate receptor agonists, methods of preparing the same, and pharmaceutical compositions containing the same as an active agent” (LG LIFE SCIENCES LTD., priority 2013, dated 2017)
